Measured values published in patent US10434138B2, “Formulations” (Sublimity Therapeutics Limited, priority 2013, dated 2019).
Where a name gives a salt, the structure may show the parent alone. Read-outs that look alike come from different tables or passages of the source.

Tests used:
[1] = conversion of the g/L value
[2] = cited from earlier work

solubility in water [1]: ~0.8%
SMILES: NNc1nncc2ccccc12 [Hydralazine HCl]
solubility in water [2]: approximately 8 g/L
